Laboratory results: patent US6979686B1, “Substituted pyrazoles as p38 kinase inhibitors” (Pharmacia Corporation, priority 2001, dated 2005)
pIC50: −log10 of the molar value.

Target: T1, human p38 kinase alpha (Homo sapiens, UniProt Q16539)
T1 construct: GST (N, cleaved yes); made in house; host or cells: E. coli DH10B
Test: p38 kinase in vitro assay, phosphorylation of biotinylated PHAS-I with 32P-ATP
Assay type: biochemical
Settings: @ 1.0 uM

T1 sequence (Q16539 whole entry): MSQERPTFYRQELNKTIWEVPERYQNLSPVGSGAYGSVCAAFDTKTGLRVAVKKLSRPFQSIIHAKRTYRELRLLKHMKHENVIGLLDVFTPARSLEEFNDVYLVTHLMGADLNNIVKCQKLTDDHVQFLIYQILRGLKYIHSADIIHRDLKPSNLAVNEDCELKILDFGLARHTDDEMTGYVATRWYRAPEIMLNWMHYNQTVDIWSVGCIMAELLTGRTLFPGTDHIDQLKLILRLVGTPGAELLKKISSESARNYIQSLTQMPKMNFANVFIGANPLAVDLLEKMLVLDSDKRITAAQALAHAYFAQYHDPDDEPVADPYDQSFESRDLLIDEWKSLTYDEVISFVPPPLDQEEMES

P38 alpha kinase % inhib @ conc. [% @] | P38 alpha kinase % inhib @ conc. (uM) [% @] | SMILES
84.0 |  | CS(=O)(=O)NCCCc1[nH]nc(-c2ccc(F)cc2)c1-c1ccncc1 [Example B-1201]
 | 72.0 | COc1ccc(NC(=O)NCCc2[nH]nc(-c3ccc(F)cc3)c2-c2ccncc2)cc1 [Example B-1047]
86.0 |  | O=C(NCCCc1[nH]nc(-c2ccc(F)cc2)c1-c1ccncc1)Nc1ccccc1F [Example B-1215]
 | 47.0 | CSc1cccc(NC(=O)NCCc2[nH]nc(-c3ccc(F)cc3)c2-c2ccncc2)c1 [Example B-0933]
73.0 |  | O=S(=O)(NCc1[nH]nc(-c2ccc(F)cc2)c1-c1ccncc1)c1cccc2cccnc12 [Example B-0116]
 | 69.0 | O=S(=O)(C=Cc1ccccc1)NCCCc1[nH]nc(-c2ccc(F)cc2)c1-c1ccncc1 [Example B-1193]
84.0 |  | O=S(=O)(NCCCc1[nH]nc(-c2ccc(F)cc2)c1-c1ccncc1)c1cccs1 [Example B-1203]
 | 87.0 | O=S(=O)(NCCc1[nH]nc(-c2ccc(F)cc2)c1-c1ccncc1)c1cccs1 [Example B-1026]
 | 84.0 | CCCCS(=O)(=O)NCCc1[nH]nc(-c2ccc(F)cc2)c1-c1ccncc1 [Example B-1022]
82.0 |  | O=C(NCCCc1[nH]nc(-c2ccc(F)cc2)c1-c1ccncc1)NCc1ccccc1 [Example B-1208]
81.0 |  | CC(C)NC(=O)NCCCc1[nH]nc(-c2ccc(F)cc2)c1-c1ccncc1 [Example B-1206]
 | 93.0 | CCS(=O)(=O)NCCc1[nH]nc(-c2ccc(F)cc2)c1-c1ccncc1 [Example B-1023]
 | 52.0 | O=S(=O)(NCCCc1[nH]nc(-c2ccc(F)cc2)c1-c1ccncc1)c1ccc(F)cc1F [Example B-1195]

Same assay, conditions: @ 1.0 uM; read-out: P38 alpha kinase % inhib @ conc.

inhibition at 1 µM [%] | SMILES
79 | CCCCC(=O)NCc1[nH]nc(-c2ccc(F)cc2)c1-c1ccncc1 [Example B-0014]
30 | CCCCCc1ccc(C(=O)NCc2[nH]nc(-c3ccc(F)cc3)c2-c2ccncc2)cc1 [Example B-0012]
60 | O=C(NCc1[nH]nc(-c2ccc(F)cc2)c1-c1ccncc1)C(=O)c1c[nH]c2ccccc12 [Example B-0018]

Same assay, conditions: @ 10.0 uM

P38 alpha kinase IC50, uM or % inhib @ conc. (uM): % inhib | P38 alpha kinase % inhib @ conc. [% @] | SMILES
87.0% @ |  | Cc1c(-c2ccncc2)c(-c2ccc(F)cc2)nn1CC(=O)Nc1ccc(C2CCCCC2)cc1 [Example B-2427]
 | 32.0 | Cc1c(-c2ccncc2)c(-c2ccc(F)cc2)nn1CC(=O)N(C)CCc1ccccc1 [Example B-2376]
86.0% 2 |  | Cc1c(-c2ccncc2)c(-c2ccc(F)cc2)nn1CC(=O)Nc1ccccc1F [Example B-2432]
 | 46.0 | CCN(CC)CC(C)NC(=O)Cn1nc(-c2ccc(F)cc2)c(-c2ccncc2)c1C (centres unmarked) [Example B-2337]
60.0% @ |  | Cc1c(-c2ccncc2)c(-c2ccc(F)cc2)nn1CC(=O)N(C)CC(N)=O [Example B-2400]
 | 69.0 | Cc1c(-c2ccncc2)c(-c2ccc(F)cc2)nn1CC(=O)NC1CCSC1=O (centres unmarked) [Example B-2323]
90.0% @ |  | Cc1c(-c2ccncc2)c(-c2ccc(F)cc2)nn1CC(=O)Nc1cc([N+](=O)[O-])cc([N+](=O)[O-])c1 [Example B-2430]
82.0% @ |  | Cc1c(-c2ccncc2)c(-c2ccc(F)cc2)nn1CC(=O)Nc1cccc(SC(F)(F)F)c1 [Example B-2459]

Same assay, conditions: @ 100.0 uM

P38 alpha kinase IC50, uM or % inhib @ conc. (uM): % inhib [% @] | SMILES
72 | COc1ccc(CCN(CCC#N)C(=O)Cn2nc(-c3ccc(F)cc3)c(-c3ccncc3)c2C)cc1OC [Example B-2403]

Same assay, conditions: Table 8; 1% DMSO; read-out: p38α Kinase Assay IC50

pIC50 | SMILES
6.57 | CS(=O)(=O)N1CCN(c2n[nH]c(-c3ccc(Cl)cc3)c2-c2ccncc2)CC1 [Example A-320, 1-[5-(4-chlorophenyl)-4-(4-pyridinyl)-1H-pyrazol-3-yl]-4-(methylsulfonyl)piperazine, monohydrate]
7.92 | Clc1ccc(-c2[nH]nc(N3CCNCC3)c2-c2ccncc2)cc1 [Example A-328, 1-[5-(4-chlorophenyl)-4-(4-pyridinyl)-1H-pyrazol-3-yl]piperazine]

Same assay, conditions: in vitro P38-alpha kinase inhibition; read-out: P38 alpha kinase IC50

pIC50 | SMILES
5.63 | CC(NC(=O)c1cc(F)c(F)cc1F)c1[nH]nc(-c2ccc(F)cc2)c1-c1ccncc1 (centres unmarked) [Example B-0698]
6.09 | CC(NC(=O)N(C)c1ccccc1)c1[nH]nc(-c2ccc(F)cc2)c1-c1ccncc1 (centres unmarked) [Example B-0586]
5.83 | O=C(NCCc1[nH]nc(-c2ccc(F)cc2)c1-c1ccncc1)c1cc2ccccc2s1 [Example B-1124]
6.29 | O=C(NC(Cc1ccccc1)c1[nH]nc(-c2ccc(F)cc2)c1-c1ccncc1)N1CCOCC1 (centres unmarked) [Example B-0727]
7.16 | CC(NS(=O)(=O)c1ccc(F)c(Cl)c1)c1[nH]nc(-c2ccc(F)cc2)c1-c1ccncc1 (centres unmarked) [Example B-0643]
5.26 | CC(=O)OCC(=O)NC(C)c1[nH]nc(-c2ccc(F)cc2)c1-c1ccncc1 (centres unmarked) [Example B-0530]
5.65 | O=C(NCCc1[nH]nc(-c2ccc(F)cc2)c1-c1ccncc1)c1cccc(Cl)c1 [Example B-1153]
7.27 | O=S(=O)(NCCc1[nH]nc(-c2ccc(F)cc2)c1-c1ccncc1)c1ccc(-c2ccccc2)cc1 [Example B-1109]
5.76 | CC(C)COC(=O)NC(Cc1ccccc1)c1[nH]nc(-c2ccc(F)cc2)c1-c1ccncc1 (centres unmarked) [Example B-0826]
6.33 | CC(C)NC(=O)NC(Cc1ccccc1)c1[nH]nc(-c2ccc(F)cc2)c1-c1ccncc1 (centres unmarked) [Example B-0723]
7.30 | O=S(=O)(NCCc1[nH]nc(-c2ccc(F)cc2)c1-c1ccncc1)c1ccc(C(F)(F)F)cc1 [Example B-1087]
6.18 | CC(=O)Nc1nc(C)c(S(=O)(=O)NCCc2[nH]nc(-c3ccc(F)cc3)c2-c2ccncc2)s1 [Example B-1058]
6.10 | O=C(NC(Cc1ccccc1)c1[nH]nc(-c2ccc(F)cc2)c1-c1ccncc1)N1CCOCC1 (centres unmarked) [Example B-0772]
7.02 | O=C(NCCc1[nH]nc(-c2ccc(F)cc2)c1-c1ccncc1)c1c(Cl)cccc1Cl [Example B-1147]
6.72 | CC(NS(=O)(=O)c1ccc2ccccc2c1)c1[nH]nc(-c2ccc(F)cc2)c1-c1ccncc1 (centres unmarked) [Example B-0652]
5.41 | CC(NC(=O)Nc1ccc(F)cc1)c1[nH]nc(-c2ccc(F)cc2)c1-c1ccncc1 (centres unmarked) [Example B-0583]
5.80 | Cc1cc(C)c(S(=O)(=O)NCCc2[nH]nc(-c3ccc(F)cc3)c2-c2ccncc2)c(C)c1 [Example B-1067]

Same assay, conditions: in vitro P38-alpha kinase; read-out: P38 alpha kinase IC50

pIC50 | SMILES
7.00 | CC(=O)Nc1ccc(S(=O)(=O)NCCCc2[nH]nc(-c3ccc(F)cc3)c2-c2ccncc2)cc1 [Example B-1236]
7.89 | O=C(NCCCc1[nH]nc(-c2ccc(F)cc2)c1-c1ccncc1)c1c(F)cccc1F [Example B-1352]
6.26 | Cc1noc(C)c1C(=O)NCc1[nH]nc(-c2ccc(F)cc2)c1-c1ccncc1 [Example B-0304]
6.40 | O=C(NCCCc1[nH]nc(-c2ccc(F)cc2)c1-c1ccncc1)c1ccc(C(F)(F)F)cc1F [Example B-1337]
6.74 | O=C(NCCCc1[nH]nc(-c2ccc(F)cc2)c1-c1ccncc1)c1cccs1 [Example B-1357]
5.74 | Cc1noc(C)c1S(=O)(=O)N1CCC(c2[nH]nc(-c3ccc(F)cc3)c2-c2ccncc2)CC1 [Example B-1435]
5.50 | O=C(c1cccc(F)c1)N1CCC(c2[nH]nc(-c3ccc(F)cc3)c2-c2ccncc2)CC1 [Example B-1393]
6.92 | O=C(c1cc(F)ccc1F)N1CCC(c2[nH]nc(-c3ccc(F)cc3)c2-c2ccncc2)CC1 [Example B-1402]
6.37 | CCc1ccc(S(=O)(=O)NCCCc2[nH]nc(-c3ccc(F)cc3)c2-c2ccncc2)cc1 [Example B-1265]
5.64 | Cc1c(-c2ccncc2)c(-c2ccc(F)cc2)nn1CC(=O)NCCCN1CCCC1 [Example B-2307]
7.52 | CC(C)C(=O)N1CCC(c2[nH]nc(-c3ccc(F)cc3)c2-c2ccncc2)CC1 [Example B-1361]
7.33 | CS(=O)(=O)c1ccc(S(=O)(=O)N2CCC(c3[nH]nc(-c4ccc(F)cc4)c3-c3ccncc3)CC2)cc1 [Example B-1476]
6.00 | Cc1c(-c2ccncc2)c(-c2ccc(F)cc2)nn1CC(=O)NCC(=O)c1ccccc1 [Example B-2317]
7.40 | O=S(=O)(NCCCc1[nH]nc(-c2ccc(F)cc2)c1-c1ccncc1)c1cc(Cl)cc(Cl)c1O [Example B-1241]
5.72 | CCOCCCNC(=O)Cn1nc(-c2ccc(F)cc2)c(-c2ccncc2)c1C [Example B-2273]
7.17 | O=C(NCCCc1[nH]nc(-c2ccc(F)cc2)c1-c1ccncc1)c1ccccc1F [Example B-1351]
6.24 | CCOC(=O)N1CCC(c2[nH]nc(-c3ccc(F)cc3)c2-c2ccncc2)CC1 [Example B-1422]
6.18 | Cc1c(-c2ccncc2)c(-c2ccc(F)cc2)nn1CC(=O)NCCc1csc2ccccc12 [Example B-2308]
6.00 | O=C(c1ccc(Cl)c(Cl)c1)N1CCC(c2[nH]nc(-c3ccc(F)cc3)c2-c2ccncc2)CC1 [Example B-1418]
6.92 | O=C(NCCCc1[nH]nc(-c2ccc(F)cc2)c1-c1ccncc1)c1cccc(C(F)(F)F)c1F [Example B-1339]
> 7.00 | Cc1ccccc1S(=O)(=O)NCCCc1[nH]nc(-c2ccc(F)cc2)c1-c1ccncc1 [Example B-1274]
6.51 | O=S(=O)(NCCCc1[nH]nc(-c2ccc(F)cc2)c1-c1ccncc1)c1ccc(S(=O)(=O)c2ccccc2)s1 [Example B-1293]
> 7.00 | CCC(=O)N1CCC(c2[nH]nc(-c3ccc(F)cc3)c2-c2ccncc2)CC1 [Example B-1420]
6.66 | CS(=O)(=O)c1ccccc1S(=O)(=O)N1CCC(c2[nH]nc(-c3ccc(F)cc3)c2-c2ccncc2)CC1 [Example B-1462]
